From US20250009903A1, “PEPTIDE-BINDING HYBRID LIPOSOME EXOSOME, PEPTIDE-BINDING EXOSOME, COMPOSITION CONTAINING SAME, AND METHOD OF FORMING SAME” (SEKISUI CHEMICAL CO., LTD., priority 2021, published 2025)

Tested on: HepG2 cells
Experiment: Influence of peptide-binding MSC-derived / HEK293 cell-derived exosome solutions on cell growth (Experimental Example 5)
Type: cell-based
Description: After the sample medium was added, culturing was performed for 48 hours, and using the 8-channel pipette, washing was performed twice with 100 μl of a serum-free DMEM medium (H-Glc). A 10% FBS (exosome-depleted) DMEM (H-Glc) medium was added at 100 μl/well. In addition, after culturing was performed for 48 hours, Premix WST-1 Cell Proliferation Assay System (reagent for cell growth measurement, commercially available from Takara Bio Inc.) was added at 10 μl/well, and color development was performed by performing incubation for 2 hours under […] conditions. The absorbance at 440 nm was measured using “Synergy HTX Multimode Plate Reader” (culture plate absorptiometer, commercially available from Bio Tek Instruments, Inc.). The average absorbance of the control group (no liposome added) was set as 100, the percentage of the absorbance of each well was calculated and used as an index of the degree of cell growth. Here, the Tukey Kramer method was used for the multiple comparison test.
A solution of a peptide having an amino acid sequence shown in SEQ ID NO: 1 was added to a 20 mM borate buffer solution (pH 8.6). In addition, Lipofectamine (registered trademark) (solution for transfection) was dissolved in a serum-free DMEM to prepare a 10% Lipofectamine solution. […]

WEAALAEALAEALAEHLAEALAEALEALAA (Amino acid sequence derived from a protein fragment) [peptide]
% with respect to control group (degree of cell growth) (Table 6A, Adipo-MSC-derived exosome 40 μg/ml, peptide SEQ ID NO: 1, DOX liposome 40 μM, n=6): 147.2% | % with respect to control group (degree of cell growth) (Table 6B, HEK293 cell-derived exosome 40 μg/ml, peptide SEQ ID No. 1, DOX liposome 40 μM): 141.3%
